Assay results taken from publication PMC6981581, “N-(2-Arylmethylthio-4-Chloro-5-Methylbenzenesulfonyl)amide Derivatives as Potential Antimicrobial Agents—Synthesis and Biological Studies” (International Journal of Molecular Sciences, 2019).
In brackets after ≈: the same amount, converted by molar mass. Several values for one entry are separate records, joined by “and”; a condition that tells them apart may be missing. Equal entries are not always repeated. Where two headings read alike, the source gives them in different places.

Tests used:
Format in all cases: cell-based
[1] = system: Candida albicans ATCC 10231; assay: Broth dilution MIC/MFC, reference fungal strain; conditions: for MFC/MIC: C. a. ATCC 10231; for MFC / MIC: Candida albicans, ATCC10231, C. albicans ATCC 10231; for MFC: read-out: MFC; for MIC: read-out: MIC
Procedure: (§1) The tests were carried out using a serial dilution method, allowing the determination of MIC (minimal concentration inhibiting bacterial growth), MBC (minimal bactericidal concentration), and MFC (minimal fungicidal concentration) values.
(§2) Antimicrobial activity was tested using the following reference strains: Staphylococcus aureus ATCC 6538 (MSSA), Staphylococcus aureus ATCC 43300 (MRSA), Staphylococcus epidermidis PCM 2118, Escherichia coli ATCC 11229, Pseudomonas aeruginosa ATCC 15442, Proteus vulgaris NCTC 4635, Enterococcus faecalis ATCC 11420, and Candida albicans ATCC 10231.
(§3) A broth dilution method was used to determine minimal inhibitory concentration (MIC) for tested compounds as recommended by Clinical Laboratory Standards Institute (CLSI) guidelines. Investigated compounds were diluted in Mueller Hinton Broth 2 (Sigma-Aldrich Co., St. Louis, MO, USA) in polypropylene 96-well plates and initial inoculum 5 × 10^5 cfu/mL were incubated at 37 °C for 18 h. MIC was taken as the lowest drug concentration at which an observable growth was inhibited. […] The loopful (10 µL) of the tested sample was transferred to Tryptic Soy Agar (TSA, Becton-Dickinson, Franklin Lakes, NJ, USA) and incubated at 37 °C for 48 h. […] Drug Solutions were made fresh on the day of the assay. All experiments were performed in triplicate.

[2] = system: MCF-7 (breast cancer); assay: MTT cell viability assay; conditions: Homo sapiens, MCF7, 72 h incubation, mean ± SD
Procedure: (§4) Analysis was performed using the MTT test and 72 h of incubation.
(§5) All chemicals were obtained from Sigma-Aldrich (St. Louis, MO, USA). The MCF-7 and HeLa cell lines were purchased from Cell Lines Services (Eppelheim, Germany), the HCT-116 cell line was purchased from ATCC (ATCC-No: CCL-247). Cells were cultured in Dulbecco’s modified Eagle’s medium (DMEM) supplemented with 10% fetal bovine serum, 2 mM glutamine, 100 units/mL penicillin, and 100 μg/mL streptomycin. Cultures were held in an incubator (Heraceus, HeraCell) in a humidified atmosphere with 5% CO2 at 37 °C.
(§6) Cell viability was evaluated using the MTT (3-(4,5-dimethylthiazol-2-yl)-2,5-diphenyltetrazolium bromide) assay. Stock solutions of the studied compounds were obtained in 100% DMSO. […] Cells at a density of 5 × 10^3 cells/well, seeded in 96-well plates, were treated for 72 h with the tested compounds in the concentration range 1–100 μM (1, 10, 25, 50 and 100 μM). After treatment, cells were incubated for 2 h with MTT (0.5 mg/mL) at 37 °C. Cells were lysed with DMSO and the absorbance of the formazan solution was measured at 550 nm with a plate reader (1420 multilabel counter, Victor, Jügesheim, Germany). Values are expressed as the mean ± SD of at least three independent experiments conducted in triplicate.

[3] = system: HCT-116 (colon cancer); assay: MTT cell viability assay; conditions: Homo sapiens, 72 h incubation, mean ± SD
Procedure: as §4, §5, §6

[4] = system: HeLa (cervical cancer); assay: MTT cell viability assay; conditions: Homo sapiens, 72 h incubation, mean ± SD
Procedure: as §4, §5, §6

[5] = system: Enterococcus faecalis ATCC 11420; assay: Broth dilution MIC/MBC, reference strain; conditions: for MBC/MIC: E. f. ATCC 11420; for MBC / MIC: Enterococcus faecalis, ATCC11420, E. faecalis ATCC 11420; for MBC: read-out: MBC; for MIC: read-out: MIC
Procedure: as §1, §2, §3

[6] = system: Staphylococcus epidermidis PCM 2118; assay: Broth dilution MIC/MBC, reference strain; conditions: for MBC/MIC: S. e. PCM 2118; for MIC: read-out: MIC
Procedure: as §1, §2, §3

[7] = system: Escherichia coli ATCC 11229; assay: Broth dilution MIC/MBC, reference strain; conditions: for MBC/MIC: E. c. ATCC 11229; for MBC / MIC: Escherichia coli, ATCC11229, E. coli ATCC 11229; for MBC: read-out: MBC; for MIC: read-out: MIC
Procedure: as §1, §2, §3

[8] = system: Pseudomonas aeruginosa ATCC 15442; assay: Broth dilution MIC/MBC, reference strain; conditions: for MBC/MIC: P. a. ATCC 15442; for MBC / MIC: Pseudomonas aeruginosa, ATCC15442, P. aeruginosa ATCC 15442; for MBC: read-out: MBC; for MIC: read-out: MIC
Procedure: as §1, §2, §3

[9] = system: Proteus vulgaris NCTC 4635; assay: Broth dilution MIC/MBC, reference strain; conditions: for MBC/MIC: P. v. NCTC 4635; for MBC / MIC: Proteus vulgaris, NCTC4635, P. vulgaris NCTC 4635; for MBC: read-out: MBC; for MIC: read-out: MIC
Procedure: as §1, §2, §3

[10] = system: Staphylococcus aureus ATCC 43300 (MRSA); assay: Broth dilution MIC/MBC, reference strain; conditions: for MBC/MIC: S. a. ATCC 43300; for MBC / MIC: Staphylococcus aureus, S. aureus ATCC 43300; for MBC: read-out: MBC; for MIC: read-out: MIC
Procedure: as §1, §2, §3

[11] = system: Staphylococcus aureus ATCC 6538 (MSSA); assay: Broth dilution MIC/MBC, reference strain; conditions: for MBC/MIC: S. a. ATCC 6538; for MBC / MIC: Staphylococcus aureus, S. aureus ATCC 6538; for MBC: read-out: MBC; for MIC: read-out: MIC
Procedure: as §1, §2, §3

[12] = system: HaCaT cell line (human keratinocyte); assay: MTT cell viability assay; conditions: MTT assay, 72 h incubation, mean ± SD, read-out: IC50 HaCaT
[13] = Staphylococcus epidermidis, PCM2118, S. epidermidis PCM 2118, read-out: MBC
[14] = Staphylococcus epidermidis, PCM2118, S. epidermidis PCM 2118

Row | Compound | MFC/MIC [1] | MFC [1] | MIC [1] | IC50 [2] | IC50 [3] | IC50 [4] | MBC/MIC [5] | MBC [5] | MIC [5] | MBC/MIC [6] | MBC ([6]; S. epidermidis PCM 2118) | MBC [6, 13] | MIC [6, 14] | MBC/MIC [7] | MBC [7] | MIC [7] | MBC/MIC [8] | MBC [8] | MIC [8] | MBC/MIC [9] | also measured
1 | Cc1cc(S(=O)(=O)NC(=O)CCC2CCCCC2)c(SCc2ccc(C(F)(F)F)cc2)cc1Cl [Compound 9, N-[4-Chloro-5-methyl-2-(4-trifluoromethylbenzylthio)benzenesulfonyl]-3-cyclohexylpropanamide] | 2 | 128 µg/mL (≈ 240 µM) | 64 µg/mL (≈ 120 µM) | 65 ± 3 µM | 78 ± 2 µM | 90 ± 4 µM | >16 | > 128 µg/mL | 8 µg/mL (≈ 15 µM) | 2 | 8 µg/mL (≈ 15 µM) | 4 to 16 µg/mL (≈ 7.49 to 30 µM) | 4 µg/mL (≈ 7.49 µM) | >1 | > 128 µg/mL | 128 µg/mL (≈ 240 µM) | >1 | > 128 µg/mL | 128 µg/mL (≈ 240 µM) | >2 | MBC [9]: > 128 µg/mL; MIC [9]: 64 µg/mL (≈ 120 µM); MBC/MIC [10]: >32; MBC [10]: > 128 µg/mL; MIC [10]: 4 µg/mL (≈ 7.49 µM); MBC/MIC [11]: >16; MBC [11]: > 128 µg/mL; MIC [11]: 8 µg/mL (≈ 15 µM); IC50 [12]: 40 µg/mL and 74 µM
2 | Cc1cc(S(=O)(=O)NC(=O)C=Cc2ccccc2)c(SCc2cccc(C(F)(F)F)c2)cc1Cl [Compound 15, N-[4-Chloro-5-methyl-2-(3-trifluoromethylbenzylthio)benzenesulfonyl]cinnamamide] | 2 | 128 µg/mL (≈ 243 µM) | 64 µg/mL (≈ 122 µM) | 93 ± 3 µM | 86 ± 2 µM | 165 ± 9 µM | >8 | > 128 µg/mL | 16 µg/mL (≈ 30.4 µM) | 1 | 8 µg/mL (≈ 15.2 µM) | 4 to 16 µg/mL (≈ 7.6 to 30.4 µM) | 8 µg/mL (≈ 15.2 µM) | 1 | 128 µg/mL (≈ 243 µM) | 128 µg/mL (≈ 243 µM) | 2 | 128 µg/mL (≈ 243 µM) | 64 µg/mL (≈ 122 µM) | >2 | MBC [9]: > 128 µg/mL; MIC [9]: 64 µg/mL (≈ 122 µM); MBC/MIC [10]: 16; MBC [10]: 128 µg/mL (≈ 243 µM); MIC [10]: 8 µg/mL (≈ 15.2 µM); MBC/MIC [11]: 16; MBC [11]: 128 µg/mL (≈ 243 µM); MIC [11]: 8 µg/mL (≈ 15.2 µM); IC50 [12]: 79 µg/mL and 150 µM
